Reference: patent US7501430B2 (ArQule, Inc., priority 2006, dated 2009)

Target: T1, mutant B-RAF (Homo sapiens, UniProt P15056, V600E)
T1 construct: purchased Upstate (Charlottesville, Va.)
Assay: RAF biochemical assay (MEK-1 phosphorylation, anti-phospho MEK1/2 detection)
Conditions: read-out: Mutant B-RAF IC50
Outline: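 Detection is by ELISA: after a 30 min room-temperature reaction, plate-captured GST-MEK-1 is probed with anti-phospho MEK1/2, then an AP-tagged secondary antibody with fluorescent Attophos read-out.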

T1 sequence (P15056 whole entry V600E): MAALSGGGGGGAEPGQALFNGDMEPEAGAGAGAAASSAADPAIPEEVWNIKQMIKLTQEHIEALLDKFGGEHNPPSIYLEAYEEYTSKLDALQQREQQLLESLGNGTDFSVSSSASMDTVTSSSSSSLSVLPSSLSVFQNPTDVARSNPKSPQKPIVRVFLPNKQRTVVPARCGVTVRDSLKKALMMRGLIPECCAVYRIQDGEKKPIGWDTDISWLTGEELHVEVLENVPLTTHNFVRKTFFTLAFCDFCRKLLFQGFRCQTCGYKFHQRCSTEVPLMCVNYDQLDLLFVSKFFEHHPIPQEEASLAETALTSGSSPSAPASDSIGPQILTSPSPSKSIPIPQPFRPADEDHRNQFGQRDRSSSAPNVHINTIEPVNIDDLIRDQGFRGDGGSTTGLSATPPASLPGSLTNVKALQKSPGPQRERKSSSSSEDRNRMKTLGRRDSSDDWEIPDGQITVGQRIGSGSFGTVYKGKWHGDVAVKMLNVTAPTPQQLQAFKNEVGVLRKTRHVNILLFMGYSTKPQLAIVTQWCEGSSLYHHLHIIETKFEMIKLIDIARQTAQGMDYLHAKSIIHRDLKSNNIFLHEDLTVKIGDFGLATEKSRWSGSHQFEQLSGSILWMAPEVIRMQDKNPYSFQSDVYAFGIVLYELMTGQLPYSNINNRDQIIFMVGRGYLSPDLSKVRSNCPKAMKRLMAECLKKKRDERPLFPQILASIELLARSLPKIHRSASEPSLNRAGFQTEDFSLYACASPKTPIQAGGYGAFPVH

Structure (SMILES) | IC50 [nM]
COc1cc(-c2nc3sccn3c2-c2ccnc(NC3CCN(S(=O)(=O)C4CC4)CC3)n2)ccc1F [Example 349, N-[1-(cyclopropylsulfonyl)piperidin-4-yl]-4-[6-(4-fluoro-3-methoxyphenyl)imidazo[2,1-b][1,3]thiazol-5-yl]pyrimidin-2-amine] | 2600
NC(=O)c1cccc(-c2nc3sccn3c2-c2ccnc(N[C@@H]3CCCN(S(=O)(=O)c4ccc(Cl)cc4)C3)n2)c1 [Example 350, 3-{5-[2-({(3R)-1-[(4-chlorophenyl)sulfonyl]piperidin-3-yl}amino)pyrimidin-4-yl]imidazo[2,1-b][1,3]thiazol-6-yl}benzamide] | 140
CC(C)NC(=O)N1CCC(Nc2nccc(-c3c(-c4cccc(O)c4)nc4sccn34)n2)CC1 [Example 351, 4-({4-[6-(3-hydroxyphenyl)imidazo[2,1-b][1,3]thiazol-5-yl]pyrimidin-2-yl}amino)-N-isopropylpiperidine-1-carboxamide] | 940
CNC(=O)N1CCC(Nc2nccc(-c3c(-c4cccc(O)c4)nc4sccn34)n2)CC1 [Example 352, 4-({4-[6-(3-hydroxyphenyl)imidazo[2,1-b][1,3]thiazol-5-yl]pyrimidin-2-yl}amino)-N-methylpiperidine-1-carboxamide] | 670
O=S(=O)(c1ccc(Cl)cc1)N1CCC[C@@H](Nc2nccc(-c3c(-c4ccc(F)c(O)c4)nc4sccn34)n2)C1 [Example 353, 5-{5-[2-({(3R)-1-[(4-chlorophenyl)suifonyl]piperidin-3-yl}amino)pyrimidin-4-yl]imidazo[2,1-b][1,3]thiazol-6-yl}-2-fluorophenol] | 3
O=S(=O)(C1CC1)N1CCC(Nc2nccc(-c3c(-c4ccc(F)c(O)c4)nc4sccn34)n2)CC1 [Example 354, 5-[5-(2-{[1-(cyclopropylsulfonyl)piperidin-4-yl]amino}pyrimidin-4-yl)imidazo[2,1-b][1,3]thiazol-6-yl]-2-fluorophenol] | 0.03
CCCNC(=O)N1CCC(Nc2nccc(-c3c(-c4cccc(O)c4)nc4sccn34)n2)CC1 [Example 355, 4-({4-[6-(3-hydroxyphenyl)imidazo[2,1-b][1,3]thiazol-5-yl]pyrimidin-2-yl}amino)-N-propylpiperidine-1-carboxamide] | 1790
O=C(NC1CCCC1)N1CCC(Nc2nccc(-c3c(-c4cccc(O)c4)nc4sccn34)n2)CC1 [Example 356, N-cyclopentyl-4-({4-[6-(3-hydroxyphenyl)imidazo[2,1-b][1,3]thiazol-5-yl]pyrimidin-2-yl}amino)piperidine-1-carboxamide] | 2540
N#Cc1ccc(-c2nc3sccn3c2-c2ccnc(N[C@@H]3CCCN(S(=O)(=O)c4ccc(Cl)cc4)C3)n2)cc1 [Example 360, 4-{5-[2-({(3R)-1-[(4-chlorophenyl)sulfonyl]piperidin-3-yl}amino)pyrimidin-4-yl]imidazo[2,1-b][1,3]thiazol-6-yl}benzonitrile] | 2470
CCOC(=O)c1ccc(-c2nc3sccn3c2-c2ccnc(N[C@@H]3CCCN(S(=O)(=O)c4ccc(Cl)cc4)C3)n2)cc1 [Example 361, ethyl 4-{5-[2-({(3R)-1-[(4-chlorophenyl)sulfonyl]piperidin-3-yl}amino)pyrimidin-4-yl]imidazo[2,1-b][1,3]thiazol-6-yl}benzoate] | 3250
NC(=O)Oc1cccc(-c2nc3sccn3c2-c2ccnc(N[C@@H]3CCCN(S(=O)(=O)c4ccc(Cl)cc4)C3)n2)c1 [Example 364, 3-{5-[2-({(3R)-1-[(4-chlorophenyl)sulfonyl]piperidin-3-yl}amino)pyrimidin-4-yl]imidazo[2,1-b][1,3]thiazol-6-yl}phenyl carbamate] | 7
Cc1nc(-c2cccc(-c3nc4sccn4c3-c3ccnc(N[C@@H]4CCCNC4)n3)c2)no1 [Example 365, 4-{6-[3-(5-methyl-1,2,4-oxadia-zol-3-yl)phenyl]imidazo[2,1-b][1,3]thiazol-5-yl}-N-[(3R)-piperidin-3-yl]pyrimidin-2-amine] | 30
Cn1cnc(S(=O)(=O)N2CCC[C@@H](Nc3nccc(-c4c(-c5cccc(O)c5)nc5sccn45)n3)C2)c1 [Example 366, 3-{5-[2-({(3R)-1-[(1-methyl-1H-imidazol-4-yl)sulfonyl]piperidin-3-yl}amino)pyrimidin-4-yl]imidazo[2,1-b][1,3]thiazol-6-yl}phenol] | 11
O=S(=O)(c1ccsc1)N1CCC[C@@H](Nc2nccc(-c3c(-c4cccc(O)c4)nc4sccn34)n2)C1 [Example 367, 3-[5-(2-{[(3R)-1-(3-thienylsulfonyl)piperidin-3-yl]amino}pyrimidin-4-yl)imidazo[2,1-b][1,3]thiazol-6-yl]phenol] | 3
CC(C)S(=O)(=O)N1CCC[C@@H](Nc2nccc(-c3c(-c4cccc(O)c4)nc4sccn34)n2)C1 [Example 368, 3-[5-(2-{[(3R)-1-(isopropylsulfonyl)piperidin-3-yl]amino}pyrimidin-4-yl)imidazo[2,1-b][1,3]thiazol-6-yl]phenol] | > 3000
O=S(=O)(Cc1ccccc1)N1CCC[C@@H](Nc2nccc(-c3c(-c4cccc(O)c4)nc4sccn34)n2)C1 [Example 369, 3-[5-(2-{[(3R)-1-(benzylsulfonyl)piperidin-3-yl]amino}pyrimidin-4-yl)imidazo[2,1-b][1,3]thiazol-6-yl]phenol] | > 3000
CCCS(=O)(=O)N1CCC[C@@H](Nc2nccc(-c3c(-c4cccc(O)c4)nc4sccn34)n2)C1 [Example 370, 3-[5-(2-{[(3R)-1-(propylsulfonyl)piperidin-3-yl]amino}pyrimidin-4-yl)imidazo[2,1-b][1,3]thiazol-6-yl]phenol] | 1200
O=S(=O)(c1cccs1)N1CCC[C@@H](Nc2nccc(-c3c(-c4cccc(O)c4)nc4sccn34)n2)C1 [Example 371, 3-[5-(2-{[(3R)-1-(2-thienylsulfonyl)piperidin-3-yl]amino}pyrimidin-4-yl)imidazo[2,1-b][1,3]thiazol-6-yl]phenol] | 3
O=S(=O)(c1ccccc1)N1CCC[C@@H](Nc2nccc(-c3c(-c4cccc(O)c4)nc4sccn34)n2)C1 [Example 372, 3-[5-(2-{[(3R)-1-(phenylsulfonyl)piperidin-3-yl]amino}pyrimidin-4-yl)imidazo[2,1-b][1,3]thiazol-6-yl]phenol] | 3
CCS(=O)(=O)N1CCC[C@@H](Nc2nccc(-c3c(-c4cccc(O)c4)nc4sccn34)n2)C1 [Example 373, 3-[5-(2-{[(3R)-1-(ethylsulfonyl)piperidin-3-yl]amino}pyrimidin-4-yl)imidazo[2,1-b][1,3]thiazol-6-yl]phenol] | > 3000
CC(=O)Nc1ccc(S(=O)(=O)N2CCC[C@@H](Nc3nccc(-c4c(-c5cccc(O)c5)nc5sccn45)n3)C2)cc1 [Example 374, N-(4-{[(3R)-3-({4-[6-(3-hydroxyphenyl)imidazo[2,1-b][1,3]thiazol-5-yl]pyrimidin-2-yl}amino)piperidin-1-yl]sulfonyl}phenyl)acetamide] | 1
O=S(=O)(CC(F)(F)F)N1CCC[C@@H](Nc2nccc(-c3c(-c4cccc(O)c4)nc4sccn34)n2)C1 [Example 375, 3-{5-[2-({(3R)-1-[(2,2,2-trifluoroethyl)sulfonyl]piperidin-3-yl}amino)pyrimidin-4-yl]imidazo[2,1-b][1,3]thiazol-6-yl}phenol] | > 3000
